For one assay, the system named is Hec-1A cells. Nature of the assay: Proliferation assay, endometrial cancer cell line Hec-1A. In kind it is cell-based. The note with it: Homo sapiens; 72 h, CyQUANT; Hec-1A expresses oncogenic mutant K-Ras. The text has this: (§1) FIG. 4A-4E—Concentration-response curves of 42, 68, 70, 72 and 73 on proliferation of five endometrial cancer cell lines. KLE and ESS-1 express wild type K-Ras and Hec-1A, Hec-1B and Hec50 express oncogenic mutant K-Ras. […] EC50 values for their inhibitory effect are tabulated. ND means that the EC50 value could not be determined within the dose range tested. See also Table 4.
(§2) Cell lines: Madine Darby Canine Kidney epithelial cells (MDCK) stably co-expressing mGFP-tagged full length oncogenic mutant K-Ras (GFP-K-RasG12V) and mCherry-tagged to the amino acids 179-189 of H-RasC181S, C184S (mCherry-CAAX, localizes primarily to endomembranes) were grown in DMEM-high glucose/sodium pyruvate/10% FBS. The medium was supplemented with 1× Penicillin/Streptomycin for fluorescence microscopy assays, to avoid any microbial contamination from the test compounds added. KLE and Hec50 cells were maintained in DMEM-F-12 medium supplemented with 10% FBS. Hec-1A and Hec-1B cells were grown in McCoy's 5a medium supplemented with 10% FBS. ESS-1 cells were grown in RPMI 1640 medium supplemented with 20% FBS. MPanc96 cells were grown in DMEM supplemented with 10% FBS, MiaPaCa-2 cells in DMEM supplemented with 10% FBS and 2.5% horse serum and all other cell lines were grown in RPMI 1640 supplemented with 10% FBS. All cancer cell media were supplemented with 1× Penicillin/Streptomycin. All cell lines were grown at 37° C. with 5% CO2.
(§3) Proliferation Assay: Cells were seeded in 96-well plates. After 24 h, fresh growth medium supplemented with 0.1% vehicle (DMSO), or various concentrations of drugs was added and cells were grown for 72 h. Cell numbers were quantified using the CyQUANT® Cell Proliferation Assay Kit (Life Technologies), according to the manufacturer's protocol. Fluorescence measurement was used as a measure of live cell number.
(§4) Based upon the concentration-response curves of five different compounds (42, 68, 70, 72, and 73) were tested for their effects on cell proliferation of five different endometrial cell lines. These experiments were carried out as described in the Methods and Materials section.

The test system of a further assay is Hec-1B cells. Nature of the assay: Proliferation assay, endometrial cancer cell line Hec-1B. In kind it is cell-based. The note with it: Homo sapiens; 72 h, CyQUANT; Hec-1B expresses oncogenic mutant K-Ras; ND = EC50 could not be determined within the dose range tested.
Text: as §1, §2, §3
Based upon the concentration-response curves of five different compounds (42, 68, 70, 72, and 73) were tested for their effects on cell proliferation of five different endometrial cell lines. […]

A further assay deals with Hec50 cells. The experiment in a line: Proliferation assay, endometrial cancer cell line Hec50. In kind it is cell-based. The note with it: 72 h, CyQUANT; Hec50 expresses oncogenic mutant K-Ras.
Text: as §1, §2, §3, §4

For the next assay, the system named is MiaPaCa-2 cells. The experiment in a line: Proliferation assay, pancreatic cancer cell line MiaPaCa-2. It counts as cell-based. The note with it: Homo sapiens, MIA PaCa-2; 72 h, CyQUANT; oncogenic mutant K-Ras.
Text: (§5) FIG. 5A-5E—Concentration-response curves of 42, 68, 70, 72 and 73 on proliferation of five pancreatic cancer cell lines. BxPC-3 expresses wild type K-Ras, whereas the others express oncogenic mutant K-Ras. […] EC50 values for their inhibitory effect are tabulated. ND means that the EC50 value could not be determined within the dose range tested. See also Table 5.
as §2, §3
(§6) Based upon the concentration-response curves of five different compounds (42, 68, 70, 72, and 73) were tested for their effects on cell proliferation of five different pancreatic cell lines. These experiments were carried out as described in the Methods and Materials section.

Another assay has as its system MPanc-96 cells. The experiment in a line: Proliferation assay, pancreatic cancer cell line MPanc-96. It counts as cell-based. Conditions: MPANC96; 72 h, CyQUANT; oncogenic mutant K-Ras.
Text: as §5, §2, §3, §6

Another assay has as its system MOH cells. The experiment in a line: Proliferation assay, pancreatic cancer cell line MOH. In kind it is cell-based. Conditions: 72 h, CyQUANT, oncogenic mutant K-Ras.
Text: as §5, §2, §3, §6

Another assay has as its system HPAC cells. The experiment in a line: Proliferation assay, pancreatic cancer cell line HPAC. In kind it is cell-based. Conditions: Homo sapiens, 72 h, CyQUANT, oncogenic mutant K-Ras.
Text: as §5, §2, §3, §6

Assay [1] addresses T1, GFP-tagged K-rasG12V (oncogenic K-ras) in MDCK cells (Homo sapiens, UniProt P01116, G12V).
T1 construct: mGFP-tagged full length oncogenic mutant K-Ras (GFP-K-RasG12V); expressed in transfected cells
The experiment in a line: K-ras mislocalization, confocal fluorescence microscopy with densitometric analysis. In kind it is cell-based, canine. Conditions: 48 hours, MDCK cells stably expressing GFP-tagged K-rasG12V, normalized to vehicle-treated control. How it is done: FIGS. 1 & 2—Representative images showing degree of K-ras mislocalization with compound treatment (images corresponds with column 3 of Table 2). MDCK cells stably expressing GFP-tagged K-rasG12V were treated with vehicle or compound (4 μM) for 48 hours and fixed with 4% paraformaldehyde. The coverslips were mounted in Mowiol and imaged by confocal microscopy (Nikon A1) using a 60× objective. The number above each image corresponds the fendiline derivative code.
(§7) To determine the effect of compounds on localization of K-ras, Mardine Darby canine kidney epithelial (MDCK) cells stably expressing GFP-tagged K-rasG12V (oncogenic K-ras) grown on cover slips were treated with vehicle or compound (4 μM) for 48 hours and fixed with 4% paraformaldehyde. The coverslips were mounted in Mowiol and imaged by confocal microscopy (Nikon A1) using a 60× objective. Images were analyzed by ImageJ software. Densitometric analysis was performed on images to determine the degree of K-ras mislocalization. To determine the effect of compounds on K-ras function, MDCK cells stably expressing GFP-tagged K-rasG12V were treated with vehicle or compound (4 μM) for 48 hours. Following treatment, whole cell lysates were prepared and subjected SDS-PAGE and western blotting to quantify the level of phosphorylated ERK, a protein activated downstream of K-ras. All calculations were normalized to vehicle-treated control.
Fluorescence microscopy: 2×10^5 or 1×10^5 cells/well were seeded in 6- or 12-well cell culture plates, respectively, containing glass coverslips. 24 h after seeding, fresh medium containing 1% vehicle (Dimethyl sulfoxide, DMSO) or 4 μM test compound (1:100 dilution, such that DMSO was 1%) was added and incubated for 48 h, following which the cells were fixed with 4% paraformaldehyde and coverslips were mounted in Mowiol. Cells were imaged in the GFP wavelength (488 nm) using a confocal microscope (Nikon A1) with 60× objective. Images were saved in tagged imaged file format (tiff) and analyzed by ImageJ software. The densitometric ratio of plasma membrane localized K-Ras versus total K-Ras was calculated and normalized to vehicle-treated control.

Assay [2] concerns phosphorylated ERK, a protein activated downstream of K-ras. The experiment in a line: Western immunoblotting for pERK (inhibition of ERK activation). It counts as cell-based, canine. The note with it: Canis lupus familiaris; 4 μM compound, 48 hours, MDCK cells stably expressing GFP-tagged K-rasG12V; whole cell lysates; normalized to vehicle-treated control; read-out: % Inhibition of ERK activation when treated with 4 μM compound. As for the experimental part:
as §7
Western Immunoblotting for pERK: 2×10^5 cells/well were seeded in 6-well cell culture plates. 24 h after seeding, fresh medium containing 1% vehicle (DMSO) or 4 μM test compound (1:100 dilution, such that DMSO was 1%) was added and incubated for 48 h. Cells were lysed in Buffer B (50 mM Tris [pH 7.5], 75 mM NaCl, 25 mM NaF, 5 mM MgCl2, 5 mM EGTA, 1 mM dithiothreitol, 100 μM NaVO4, 1% Nonidet P-40 plus protease inhibitors). SDS-PAGE and immunoblotting with the anti-phospho-p44/42 mitogen-activated protein kinase (MAPK) (ERK1/2) antibody was performed using 20 μg of each whole cell lysate. Signal was detected by enhanced chemiluminescence (SuperSignal; Pierce, Thermo Fisher Scientific, Rockford, Ill.) and imaged by FluorChemQ (Alpha Inotech, San Leandro, Calif.). Quantification of intensities was performed using FluorChemQ software. Results were normalized to vehicle-treated control.

A further assay concerns chemotaxis. The experiment in a line: Inhibition of chemotaxis. The note with it: preliminary data.

For the compound `C(CN(CC=C(c1ccccc1)c1ccccc1)[C@@H]1CCc2ccccc21)=C(c1ccccc1)c1ccccc1` [Compound 73, (R)—N,N-bis(3,3-diphenylallyl)-2,3-dihydro-1H-inden-1-amine], the EC50 in the assay on Hec-1A cells was found to be 19.6 nM; in the assay on Hec-1B cells, 330 nM; with Hec50 cells, 412 nM; in the assay on MiaPaCa-2 cells it was 894 nM; in the assay on MPanc-96 cells, 239 nM; in the assay with MOH cells, 616 nM. In addition, the EC50 in the assay with HPAC cells came out at 346 nM.
Regarding `C[C@H](c1cccc(Cl)c1)N(CC=C(c1ccccc1)c1ccccc1)CC=C(c1ccccc1)c1ccccc1` [Compound 70, (R)—N-(1-(3-chlorophenyl)ethyl)-N-(3,3-diphenylallyl)-3,3-diphenylprop-2-en-1-amine], the EC50 is 38.2 nM in the assay with Hec-1A cells; 10700 nM with Hec-1B cells; 3310 nM with Hec50 cells; 1500 nM with MiaPaCa-2 cells; 814 nM in the assay with MPanc-96 cells; 663 nM with MOH cells. The compound also returned a half-maximal effective concentration (EC50) in the assay on HPAC cells of 220 nM.
Turning to `CC(NCCC(c1ccccc1)c1ccccc1)c1ccccc1` (centres unmarked) [Fendiline, 3,3-diphenyl-N-(1-phenylethyl)propan-1-amine], the “% Mislocalization of K-ras when treated with 4 μM compound” value in assay [1] worked out at 20.53%. Moreover, the inhibition at 4 µM in assay [2] turned out to be 7.37%. The Inhibition of chemotaxis entry in the assay on chemotaxis was “effective at inhibiting chemotaxis at picomolar and nanomolar concentrations”.
`COC(=O)[C@H](NCC=C(c1ccccc1)c1ccccc1)c1ccccc1` [Compound 42, (R)-methyl 2-((3,3-diphenylallyl)amino)-2-phenylacetate]: the inhibition at 4 µM came to 50% in assay [1] (4 μM compound, read-out: % Mislocalization of K-ras when treated with 4 μM compound) and 44% in [2]. In addition, the EC50 with Hec-1A cells is 7.39 nM; in the assay with Hec-1B cells, 524 nM; with Hec50 cells it was 423 nM; in the assay with MiaPaCa-2 cells, 2410 nM; in the assay with MPanc-96 cells, 1120 nM; in the assay with MOH cells, 1040 nM. In the assay with HPAC cells, the response was half-maximal at 944 nM (EC50).
